Laboratory results from patent US20250161255A1, “NEW THERAPY AND PREVENTION FOR SUPPRESSING AGING-RELATED DISORDERS INCLUDING SARCOPENIA” (priority 2022, published 2025).
Where a name gives a salt, the structure may show the parent alone.

What was measured:
aged mice (C57BL/6J) = test: Treadmill test of muscle strength (endurance) in aged mice; type: in vivo, mouse; settings: vs PBS
From the text: To confirm that muscle strength decline would be observed in model mice (C57BL/6J) (purchased from ORIENTAL YEAST), muscle strength (endurance) in 79-week-old aged mice was checked in a treadmill test as follows.
Before recording performance, the mice were trained for three days so as to become familiarized with the equipment. An electrical stimulation grid was adjusted to 1 mA and the gradient was set to 15 degrees. On the first day of training, the mice were made to walk on the treadmill for 10 min at a speed of 10 m/min, rest for 10 min, and then walk for 10 min at a speed of 10 m/min. On the second and third days, the first two steps were performed under the same conditions as on the first day, after which walking was started at 10 m/min, and then increasing the speed by 1 m/min each minute up to a maximum speed of 20 m/min. Maximum exercise endurance was measured on the fourth day. Six mice were placed on the treadmill and the belt speed was started at 5 m/min for 5 min to warm up the mice. The speed was increased by 1 m/min to a maximum of 20 m/min. After 5 minutes of running, the speed was increased from 20 m/min to 21 m/min for 10 minutes. The mice were then forced to run at 22 m/min until they remained on the electrical stimulation grid for 10 seconds, and the distance they ran until they remained for 10 seconds was measured. […]

aged mice [1] = test: Muscle mass in aged mice, with or without exercise; type: in vivo, mouse
[2] = system: gene expression in (gastrocnemius or soleus) muscle; test: Genetic analysis (RNA-seq) of muscle of administered aged mice; type: in vivo, mouse; settings: FDR <0.05
From the text: The procedure and reagents used are as follows. The quality of all reads was checked using FastQC v0.11.8 and low-quality reads were removed using Trimmomatic (ver 0.38). LEADING: 20 (cut bases off the start of a read if quality score is less than 20), TRAILING: 20, SLIDING WINDOW: 4:15 (window size 4, average quality 15), MINLEN: 36 (drop reads if the length is less than […]) Each read obtained after filtering was mapped to the reference genome GRCm38 using STAR (ver2.7.0.f). Mapping was performed using the default values of STAR. Since the reads were paired-end with a length of 150 bp, a STAR index for reference genome GRCm38 was created in accordance with the length of 150 to perform mapping. Index generation was performed as follows: • Run Mode; genomeGenerate • Reference; GRCm38 • Annotation file; genecode version M24 • sjdbOverhang; 150 • alignment was performed using the index generated above. • Other than the foregoing, no options were added and the default values were used. • (Basic options were as follows.) • genomeDir; index generated above […] At this time, gene symbols as defined in genecode version M24 were counted. Regarding the calculated count numbers, genes with count data of 0 in all samples were filtered, TMM normalization was performed using edgeR (ver3.22.3), and correction between samples was performed. First, to obtain an overview of the data, principal component analysis and clustering analysis were performed using the count data after removing low-expressing genes. Expression changes of the specified patterns were compared based on the obtained expression values. edgeR was used to test for differentially expressed genes. […] Gene enrichment analysis was performed on the obtained variable genes using gprofiler2 (version 0.1.6). The expression values of the obtained differentially expressed genes were normalized, then extracted and visually depicted as a heat map to confirm the differential expressions. […] This analysis was performed using […] 1.8.0). In […], analysis was performed using a mouse database relating to 10 kbp upstream the TSS, stored in […]. Details of the analysis are as follows (cited from https://scenic.aertslab.org/tutorials/[…]). In the present example, gene regulation involved in the ambroxol hydrochloride of the present invention was investigated using model mice to identify genes useful for the diagnosis and treatment of sarcopenia, in the same manner as in Example 1. […] From the analysis of upstream transcription factors shown in FIG. 12, new transcription factors involved in differentiation and cellular senescence were observed as upstream factors.

[3] = Body weight and behaviour observed during the administration period; type: in vivo, mouse
Method: L-ethylcysteine hydrochloride was orally administered to aged mice from 40 to 79 weeks of age. The dose was 1000 mg/kg/day.
Ambroxol hydrochloride was orally administered to aged mice from 50 to 77 weeks of age. The dose was 9.21 mg/kg/day.

model mice (C57BL/6J) [4] = test: Frailty index test; type: in vivo, mouse
Method: The above model mice were orally administered 1000 mg/kg/day of ambroxol hydrochloride from 50 to 81 weeks of age, and frailty associated with aging was confirmed by means of a frailty index test. The evaluated items of the frailty index test are as follows, and an evaluation standard in accordance with clinical symptoms (0=no symptoms, 0.5=mild symptoms, 1=severe symptoms) was employed. • Hair, skin • Alopecia Whether there is hair loss • Loss of fur color Change in fur color from black to gray, brown, or white • Dermatitis Whether there is skin inflammation • Loss of whiskers Loss of hair and whiskers around nose • Coat condition Condition of coat, smoothness and shine of fur • Physical/musculoskeletal • Tumors Presence/absence of tumor • Distended abdomen Abdomen enlarged compared to surrounding • Kyphosis Check by stroking back • Tail stiffening Whether tail wraps freely when stroked, stiffness • Gait disorder Difficulty in walking, wide stance • Tremor Whether there are age-related tremors • Forelimb grip strength Strength of grip on wire mesh when pulled by the tail • Body condition score Check visual signs of bony protuberance, muscle wasting, obesity • Vestibulocochlear/auditory • Vestibular disturbance Balance, orientation, acceleration • Hearing loss Whether there is response when clicker is sounded from behind • Ocular/nasal • Cataracts Clouding of lens of eye • Corneal opacity Cloudy cornea • Eye discharge/swelling Eyes swollen, abnormal secretions or crusting • Microphthalmia One or both eyes are small and/or sunken • Vision loss Whether the mouse reaches toward the ground when lowered by the tail (also use a ruler) • Menace reflex Whether there is response when foreign object is brought near eyes • Nasal discharge Whether there is nasal discharge • Digestive/urogenital • Malocclusion Whether there are malocclusions or overgrown teeth • Rectal prolapse Whether there is protrusion of rectum • Vaginal/uterine/penile prolapse Check genitals • Diarrhea Check cage bedding • Respiratory • Breathing rate/depth Check for dyspnea, breath sounds (rales), tachypnea, • Discomfort • Mouse Grimace Scale Assess nose bulge, cheek bulge, ear angle, whisker change • Piloerection Whether there is stiff hair or bristling even when stroked • Other (compared to reference values) • Temperature Take average of two readings • Weight Measure weight
(§1) Grip strength was evaluated by means of a measurement of grip strength called the grip test, using a muscle strength measuring device (Muromachi Kikai, MK-380S). Specifically, the mouse was made to grasp a mesh made of wire (wire mesh) with its front and back legs, and its tail was pulled back horizontally little by little until the mouse released the wire mesh. The maximum muscle strength at that time was measured.
The above model mice were given 307.2 mg/kg/day of L-carbocysteine in drinking water for 23 weeks starting at the age of 49 weeks, and frailty index test was performed as in Example 2-5 above to confirm age-related frailty and the like.

aged mice [5] = test: Contextual fear conditional (CFC) test of fear memory; type: in vivo, mouse; settings: 77-week-old aged mice after ambroxol hydrochloride administration; vs PBS; FIG. 8
Method: Cognition and memory of the 77-week-old aged mice of Example 2-2 were evaluated by means of a contextual fear conditional (CFC) test. In the cognition and memory experiment, memory is evaluated in two ways: fear memory and spatial memory; fear memory is evaluated based on the time the subject freezes and stops moving after receiving an electric shock. […] Regarding spatial memory, when a mouse is placed on a white disk and a strong light is illuminated thereon, the mouse, which is nocturnal, will try to escape to a dark place. The disk has 20 holes, of which 19 are blocked and only one through which escape is possible. The mouse is then trained for six days to memorize the location of that one hole. The degree to which the mouse could remember the location of the hole was evaluated one day later and one week later (reference: https://www.nature.com/protocolexchange/protocols/349Reiserer).
In this example, fear memory was evaluated using the CFC test. Fear memory was assessed by CFC after administration of ambroxol hydrochloride to 77-week-old, aged mice of Example 2-2.

model mice (C57BL/6J) [6] = test: Grip test with muscle strength measuring device (MK-380S); type: in vivo, mouse; settings: oral 1000 mg/kg/day from 50 to 81 weeks of age; FIG. 19
Method: as §1

C2C12 cells = test: Gene expression in cultured C2C12 cells, treated versus untreated; type: cell-based, mouse; settings: treated vs untreated cells; Q<0.05; FIG. 13
Method: C2C12 cells, which are derived from striated muscle of mice, were cultured and treated with ambroxol hydrochloride.

[7] = aged mice administered L-ethylcysteine hydrochloride, FIG. 2
[8] = mice administered ambroxol hydrochloride, FIG. 9

In the case of CCOC(=O)[C@@H](N)CS [L-ethylcysteine hydrochloride], the “muscle strength (endurance) by treadmill test” value (aged mice (C57BL/6J); oral 1000 mg/kg/day from 40 to 79 weeks of age, measured at 79 weeks, FIG. 1) is reported as “increase in muscle strength”, the “muscle mass in aged mice” value (aged mice [1]; administration alone) is reported as “increased muscle mass” and the “muscle mass in aged mice” value (aged mice [1]; administration in combination with exercise) is reported as “significantly restored muscle mass”. For the same compound, the “number of genes with decreased expression in muscle” value [2, 7] was 92 genes, the “number of genes with increased expression in muscle” value [2, 7] was 158 genes and the “changes in body weight or behavioral abnormalities during administration” value ([3]; oral 1000 mg/kg/day, 40 to 79 weeks of age) was “no significant changes in body weight or behavioral abnormalities”.
With N[C@@H](CSCC(=O)O)C(=O)O [L-carbocysteine] the “frailty index: dermatitis” value (model mice (C57BL/6J) [4]; 307.2 mg/kg/day in drinking water for 23 weeks from 49 weeks of age) was “improves”, the “frailty index: alopecia” value (model mice (C57BL/6J) [4]; 307.2 mg/kg/day in drinking water for 23 weeks from 49 weeks of age, FIG. 22) was “improves” and the “frailty index: fur color loss (gray hair)” value (model mice (C57BL/6J) [4]; 307.2 mg/kg/day in drinking water for 23 weeks from 49 weeks of age, FIG. 23) was “improves”. For the same compound, the “frailty index: physical condition score (bone and muscle)” value (model mice (C57BL/6J) [4]; 307.2 mg/kg/day in drinking water for 23 weeks from 49 weeks of age, FIG. 25) was “improvement in physical condition” and the “total score of the frailty index test” value (model mice (C57BL/6J) [4]; 307.2 mg/kg/day in drinking water for 23 weeks from 49 weeks of age, FIG. 26) was “improvement in the total value”.
In the case of Nc1c(Br)cc(Br)cc1CNC1CCC(O)CC1 (stereo not shown) [Ambroxol hydrochloride, ambroxol hydrochloride], the “muscle strength (endurance) by treadmill test” value (aged mice (C57BL/6J); oral 9.21 mg/kg/day from 50 to 77 weeks of age, measured at 77 weeks, FIG. 7) is reported as “increase in muscle strength”, the “number of genes with decreased expression in muscle” value [2, 8] is reported as 204 genes and the “number of genes with increased expression in muscle” value [2, 8] is reported as 164 genes. For the same compound, the “changes in body weight or behavioral abnormalities during administration” value ([3]; oral 9.21 mg/kg/day, 50 to 77 weeks of age) was “no significant changes in body weight or behavioral abnormalities”, the “CFC Freezing scores / cognitive performance” value (aged mice [5]) was “improved CFC Freezing scores and increased cognitive performance” and the “frailty index: coat condition” value (model mice (C57BL/6J) [4]; oral 1000 mg/kg/day from 50 to 81 weeks of age) was “improved”. The “frailty index: skin condition (hair, skin)” value (model mice (C57BL/6J) [4]; oral 1000 mg/kg/day from 50 to 81 weeks of age, FIG. 18) was “improved”, the “frailty index: osteoporosis (physical/musculoskeletal)” value (model mice (C57BL/6J) [4]; oral 1000 mg/kg/day from 50 to 81 weeks of age, FIG. 20) was “improved” and the “muscle strength (grip strength)” value (model mice (C57BL/6J) [6]) was “improved”. For the same compound, the “number of genes with decreased expression in C2C12 cells” value (C2C12 cells) was 54 genes and the “number of genes with increased expression in C2C12 cells” value (C2C12 cells) was 53 genes.
